Measured values: patent US20230054039A1, “METHOD OF TREATING HER2-POSITIVE BREAST CANCER” (University of Cincinnati, priority 2021, published 2023)
Peptide text beside a SMILES is read from it. * marks the point of attachment. Cbz = O=C(OCc1ccccc1)*

Legend:
[1] = test system: FIP200 and ATG13 KO HeLa cells; assay: Immunoblot of HER2 in FIP200 KO and ATG13 KO HeLa cells treated with Dynasore (FIG. 13C); type: cell-based; conditions: 20 μM Dynasore for 24 hours
Method: FIG. 13C. Immuno-blots showing levels of HER2 and GAPDH in WT, FIP200 KO and ATG13 KO HeLa cells with or without treatment of 20 μM Dynasore for 24 hours, as indicated.
(§1) Western blot: Cells were cultured in 3.5 cm diameter plates (80-90% confluence), washed by PBS buffer, and lysed for 15 min on ice using a RIPA buffer (#C2978, Sigma) containing an anti-protease mix (#PI78415, Thermo Scientific). Protein concentration was measured by BCA assay (#23225, Thermo Scientific). Equal amounts of proteins were subjected to SDS-PAGE and immunoblotting as described previously (Wei et al., 2011).
To test the above possibility directly, endocytosis of HER2 in HeLa cells with or without autophagy blockade was examined. […] In addition to endocytosis from the plasma membrane, proteins from the Golgi could be transported through endosomes to the lysosome or other compartments. […] Co-expression of mTurquoise2-beta-1,4-galactosyltransferase 1 (which constitutively expresses in the Golgi) in these cells further supported accumulation of HER2 in the Golgi of FIP200 and ATG13 KO HeLa cells (FIG. 4E).

[2] = test system: Fip200−/− tumor cells; assay: Immunoblot of HER2 in Fip200-/- tumor cells treated with MG132 (FIG. 3C); type: cell-based, mouse; conditions: MG132 10 μM for 6 hours
Method: FIG. 3C. Immunoblots showing levels of HER2, ubiquitin and GAPDH in Fip200+/+ and Fip200−/− cells treated with DMSO and MG132 (10 μM) for 6 hours.
Cell lines and culture: Primary HER2 tumor cells from FIP200f/f; MMTV-Neu mice (N148 and N418 cells) were isolated and cultured in DMEM/F12 supplemented with 10% FBS, 10 ng/mL EGF, […], and 50 units/mL penicillin-streptomycin. HER2 tumor cells were then infected with recombinant retroviruses encoding CreERT2 and deletion of Fip200 was induced by culturing with 100 nmol/L 4-hydroxytamoxifen (4-OHT). HeLa and MCF-7 cells were obtained from ATCC and maintained in DMEM supplemented with 10% FBS. FIP200 KO and control WT MEF cells have been described previously.
(§2) Western blot: Cells were cultured in 3.5 cm diameter plates (80-90% confluence), washed by PBS buffer, and lysed for 15 min on ice using a RIPA buffer (#C2978, Sigma) containing an anti-protease mix (#PI78415, Thermo Scientific). Protein concentration was measured by BCA assay (#23225, Thermo Scientific). […]
To further investigate regulation of HER2 by autophagy, mRNA levels of HER2 in mammary tumor and HeLa cells with or without autophagy inhibition were examined. […] Next, HER2 protein stability was analyzed and a decreased half-life of HER2 protein in Fip200−/− tumor cells (˜3 hrs) relative to Fip200+/+tumor cells (˜5 hrs) (FIGS. 3A and 3B) was observed. […]

[3] = test system: FIP200 and ATG13 KO HeLa cells; assay: Immunoblot of HER2 in FIP200 KO and ATG13 KO HeLa cells treated with MG132 (FIG. 3D); type: cell-based; conditions: MG132 10 μM for 6 hours
Method: FIG. 3D. Immunoblots showing levels of HER2, ubiquitin and GAPDH in WT, FIP200 KO and Atg13 KO HeLa cells treated with DMSO and MG132 (10 μM) for 6 hours.
CRISPR/Cas9-mediated knockout of FIP200 or ATG13 in HeLa and MCF-7 cells and knockdown of Atg5 in HER2 tumor cells: The pX458 plasmid, pSpCas9(BB)-2A-GFP (PX458) was a gift from Feng Zhang, Addgene plasmid # 48138 was used as the cloning backbone for expressing sgFIP200 and sgATG13. The sgRNA sequences of FIP200 and ATG13 are as follows:
as §2
To further investigate regulation of HER2 by autophagy, mRNA levels of HER2 in mammary tumor and HeLa cells with or without autophagy inhibition were examined. […] Next, HER2 protein stability was analyzed and a decreased half-life of HER2 protein in Fip200−/− tumor cells (˜3 hrs) relative to Fip200+/+tumor cells (˜5 hrs) (FIGS. 3A and 3B) was observed. MG132 was used to inhibit proteasome-mediated protein degradation and its effect on HER2 protein levels in autophagy deficient HER2 tumor and HeLa cells was determined.

[4] = test system: HeLa cells; assay: Immunoblot of HER2 levels in HeLa cells treated with autophagy inhibitors (FIG. 2I); type: cell-based; conditions: 48 hrs, chloroquine 50 μM, bafilomycin 200 nM, 3-MA 5 mM, spautin-1 10 μM
Method: FIG. 2I. Immuno-blots showing levels of HER2 and GAPDH in HeLa cells treated by HBSS starvation, chloroquine (50 μM), bafilomycin (200 nM), 3-methyladenine (3-MA) (5 mM) and spautin-1 (10 μM) for 48 hrs.
as §1
To further evaluate the role of autophagy in the regulation of HER2 levels, shRNA was used to knockdown expression of another essential autophagy gene, Atg5, in the two lines of HER2 tumor cells (FIGS. 2F and 2G). […] Further, decreased HER2 levels upon FIP200 deletion was due to autophagy blockade, rather than the loss of other activities of FIP200, in HER2-driven mammary tumor cells, which was consistent with the similar phenotypes of cKO and cKI mice.

Compound: O=C(N/N=C/c1ccc(O)c(O)c1)c1cc2ccccc2cc1O [Dynasore]
- rescue of decreased level of HER2 [1]: did not rescue the decreased level of HER2

Compound: CC(C)C[C@@H](C=O)NC(=O)[C@H](CC(C)C)NC(=O)[C@H](CC(C)C)NC(=O)OCc1ccccc1 [MG132] (Cbz-Leu-Leu-Leu-aldehyde)
- reversal of reduced levels of HER2 protein [2]: did not significantly reverse the reduced levels of HER2 protein
- reversal of reduced levels of HER2 protein [3]: did not significantly reverse the reduced levels of HER2 protein

Compound: CO/C1=C\C(C)=C\[C@@H](C)[C@@H](O)[C@@H](C)C/C(C)=C/C=C/[C@H](OC)[C@@H]([C@@H](C)[C@@H](O)[C@H](C)[C@@]2(O)C[C@@H](O)[C@H](C)[C@@H](C(C)C)O2)OC1=O [bafilomycin Al, Bafilomycin A1]
- levels of HER2 [4]: reduced HER2 levels

Compound: CCN(CC)CCCC(C)Nc1ccnc2cc(Cl)ccc12 (centres unmarked) [chloroquine]
- levels of HER2 [4]: reduced HER2 levels
